For data set [1], the system named is M. Tb. H37Rv (ATCC 27294). Briefly: M. Tb. H37Rv dose-response assay. Format: cell-based. The following applies: Mycobacterium tuberculosis, ATCC27294|H37RV.
The test system of data set [2] is M. Tb. H37Rv. Briefly: Minimum bactericidal concentration. Format: cell-based, Mycobacterium tuberculosis.
The nature of data set [3]: in vitro. Particulars: mouse, % of cellular viability, High conc.

In data set [1], `CC(=O)c1c(C(F)(F)F)nc2cc(F)c(N3CCSCC3)cc2[n+]1[O-]` [Compound 24] showed an IC50 of 0.5 to 1.5 µM.

In the case of `Cc1c(C(=O)/C=C/c2ccccc2)[n+]([O-])c2cc(Cl)ccc2[n+]1[O-]` [Compound 3], the concentration for half-maximal inhibition (IC50) in data set [1] was 0.5 to 1.5 µM.

In turn, `O=C(c1ccco1)c1c(C(F)(F)F)[n+]([O-])c2cc(Cl)c(N3CCOCC3)cc2[n+]1[O-]` [Compound 16] yielded an IC50 in data set [1] of 0.5 to 1.5 µM. Further, the MBC entry in data set [2] (NA: colony counts above the established rejection value ≥ 40, TNTC: too numerous to count) was “TNTC”. The viability in data set [3] stood at 26%.

Take `COC(=O)c1c(C(F)(F)F)[n+]([O-])c2ccc(N3CCN(c4ccc(F)cc4)CC3)cc2[n+]1[O-]` [Compound 21]: the bactericidal classification entry in data set [2] (ratio MBC/MIC ≤ 4) is given as “bactericidal”.

Broadly, the IC50 is the concentration that gives 50% inhibition. A lower IC50 goes with higher potency. Broadly, the viability is the share of living cells, or the viability signal relative to a control. The low end stands for a greater loss of cells, the high end for better survival.

The values above are taken from PMC4856737 (Bioorganic & medicinal chemistry letters, 2016).
